{"source": "ChEMBL document CHEMBL1134754", "about": "“Influence of the terminal amide fragment geometry in some 3-arylideneindolin-2(1H)-ones on their 5-HT1A/5-HT2A receptor activity” (Bioorg Med Chem Lett, 2001)"}
{"system": "Rattus norvegicus", "assay": "Dose dependendt inhibition of 8-OH-DPAT(1 mg/kg, sc) induced lower lip retraction(LLR) in rats pre-administered 10 mg/kg ip dose", "assay_type": "functional", "details": "route intraperitoneal"}
{"smiles": "O=C1/C(=C\\c2cccnc2)c2ccccc2N1CCCN1CCN(c2cccc(Cl)c2)CC1", "Incidence_count": 2.3}
{"smiles": "O=C1/C(=C\\c2ccccc2)c2ccccc2N1CCCN1CCN(c2cccc(Cl)c2)CC1", "Incidence_count": 1.9}
{"system": "Rattus norvegicus", "assay": "Tested for induction of lower lip retraction(LLR) in rats at 10 mg/kg, ip, given 15 min before the test", "assay_type": "functional", "details": "not given"}
{"smiles": "O=C1/C(=C\\c2cccnc2)c2ccccc2N1CCCN1CCN(c2cccc(Cl)c2)CC1", "Induction": 0.1}
{"smiles": "O=C1/C(=C\\c2ccccc2)c2ccccc2N1CCCN1CCN(c2cccc(Cl)c2)CC1", "Induction": 0.1}
{"target": "5-hydroxytryptamine receptor 2A (Rattus norvegicus, UniProt P14842)", "sequence (P14842 whole entry)": "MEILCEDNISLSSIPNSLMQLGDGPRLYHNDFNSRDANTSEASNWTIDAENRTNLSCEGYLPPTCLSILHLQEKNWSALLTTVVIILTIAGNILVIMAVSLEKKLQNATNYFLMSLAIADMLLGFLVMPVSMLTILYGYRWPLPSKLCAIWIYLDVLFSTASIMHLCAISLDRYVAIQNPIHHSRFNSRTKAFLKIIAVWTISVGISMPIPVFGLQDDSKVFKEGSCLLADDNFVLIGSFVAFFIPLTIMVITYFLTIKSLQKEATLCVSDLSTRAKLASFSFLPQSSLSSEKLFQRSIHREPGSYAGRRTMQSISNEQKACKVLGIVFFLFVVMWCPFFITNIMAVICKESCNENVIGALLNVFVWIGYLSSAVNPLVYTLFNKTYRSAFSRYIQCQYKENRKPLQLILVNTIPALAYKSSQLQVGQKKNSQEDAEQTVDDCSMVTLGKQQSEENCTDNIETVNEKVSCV", "assay": "Displacement of [3H]- Ketanserin from rat cortex 5-hydroxytryptamine 2A receptor", "details": "not given", "units": {"Ki": "nM"}}
{"smiles": "O=C1/C(=C\\c2cccnc2)c2ccccc2N1CCCN1CCN(c2cccc(Cl)c2)CC1", "Ki": 20}
{"smiles": "O=C1Cc2ccccc2N1CCCN1CCN(c2cccc(Cl)c2)CC1", "Ki": 25}
{"smiles": "O=C1/C(=C\\c2cccs2)c2ccccc2N1CCCN1CCN(c2cccc(Cl)c2)CC1", "Ki": 138}
{"smiles": "O=C1/C(=C\\c2ccc(Cl)cc2)c2ccccc2N1CCCN1CCN(c2cccc(Cl)c2)CC1", "Ki": 366}
{"smiles": "O=C1/C(=C/c2ccc(Cl)cc2)c2ccccc2N1CCCN1CCN(c2cccc(Cl)c2)CC1", "Ki": 32}
{"smiles": "COc1ccc(/C=C2\\C(=O)N(CCCN3CCN(c4cccc(Cl)c4)CC3)c3ccccc32)cc1", "Ki": 36}
{"smiles": "O=C1/C(=C/c2cccnc2)c2ccccc2N1CCCN1CCN(c2cccc(Cl)c2)CC1", "Ki": 7}
{"smiles": "O=C1/C(=C/c2ccccc2)c2ccccc2N1CCCN1CCN(c2cccc(Cl)c2)CC1", "Ki": 38}
{"smiles": "COc1ccc(/C=C2/C(=O)N(CCCN3CCN(c4cccc(Cl)c4)CC3)c3ccccc32)cc1", "Ki": 20}
{"smiles": "O=C1/C(=C\\c2ccccc2)c2ccccc2N1CCCN1CCN(c2cccc(Cl)c2)CC1", "Ki": 56}
{"smiles": "O=C1/C(=C/c2cccs2)c2ccccc2N1CCCN1CCN(c2cccc(Cl)c2)CC1", "Ki": 64}
{"system": "Mus musculus", "assay": "In vivo effective dose required for inhibiting (+/-)-DOI-induced (2.5 mg/kg, ip) twitches in mice", "assay_type": "functional", "details": "not given", "units": {"ED50": "mg/kg"}}
{"smiles": "O=C1/C(=C\\c2cccnc2)c2ccccc2N1CCCN1CCN(c2cccc(Cl)c2)CC1", "ED50": 27}
{"smiles": "O=C(c1ccc(F)cc1)C1CCN(CCn2c(=O)[nH]c3ccccc3c2=O)CC1", "note": "[KETANSERIN]", "ED50": 0.12}
{"smiles": "O=C1Cc2ccccc2N1CCCN1CCN(c2cccc(Cl)c2)CC1", "ED50": 6.5}
{"smiles": "O=C1/C(=C\\c2ccc(Cl)cc2)c2ccccc2N1CCCN1CCN(c2cccc(Cl)c2)CC1", "ED50": 15}
{"smiles": "O=C1/C(=C/c2ccc(Cl)cc2)c2ccccc2N1CCCN1CCN(c2cccc(Cl)c2)CC1", "ED50": 20}
{"smiles": "COc1ccc(/C=C2\\C(=O)N(CCCN3CCN(c4cccc(Cl)c4)CC3)c3ccccc32)cc1", "ED50": 16}
{"smiles": "O=C1/C(=C/c2cccnc2)c2ccccc2N1CCCN1CCN(c2cccc(Cl)c2)CC1", "ED50": 9.5}
{"smiles": "O=C1/C(=C/c2ccccc2)c2ccccc2N1CCCN1CCN(c2cccc(Cl)c2)CC1", "ED50": 28.5}
{"smiles": "COc1ccc(/C=C2/C(=O)N(CCCN3CCN(c4cccc(Cl)c4)CC3)c3ccccc32)cc1", "ED50": 28.5}
{"smiles": "O=C1/C(=C\\c2ccccc2)c2ccccc2N1CCCN1CCN(c2cccc(Cl)c2)CC1", "ED50": 27.5}
{"smiles": "O=C1/C(=C/c2cccs2)c2ccccc2N1CCCN1CCN(c2cccc(Cl)c2)CC1", "ED50": 16}
{"system": "Rattus norvegicus", "assay": "Tested for induction of lower lip retraction(LLR) in rats at 20 mg/kg.", "assay_type": "functional", "details": "not given"}
{"smiles": "O=C1/C(=C\\c2ccccc2)c2ccccc2N1CCCN1CCN(c2cccc(Cl)c2)CC1", "Induction": 0.2}
{"target": "T1, 5-hydroxytryptamine receptor 1A (Rattus norvegicus, UniProt P19327)", "T1 sequence (P19327 whole entry)": "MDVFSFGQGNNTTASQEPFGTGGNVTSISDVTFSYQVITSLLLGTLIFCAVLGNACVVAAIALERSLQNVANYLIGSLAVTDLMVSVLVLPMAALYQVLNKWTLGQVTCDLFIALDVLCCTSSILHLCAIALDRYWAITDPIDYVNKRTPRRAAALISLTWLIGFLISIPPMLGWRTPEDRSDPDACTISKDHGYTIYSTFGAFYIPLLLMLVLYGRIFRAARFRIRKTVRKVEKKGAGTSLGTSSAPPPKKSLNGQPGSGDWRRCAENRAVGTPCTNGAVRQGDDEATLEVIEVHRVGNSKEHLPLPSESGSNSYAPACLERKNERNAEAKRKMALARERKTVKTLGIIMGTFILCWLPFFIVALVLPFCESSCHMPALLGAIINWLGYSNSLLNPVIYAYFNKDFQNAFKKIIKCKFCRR", "assay": "Displacement of [3H]8-OH-DPAT from 5-hydroxytryptamine 1A receptor of rat hippocampus", "assay_type": "tissue-based", "details": "not given", "units": {"Ki": "nM"}}
{"smiles": "O=C1/C(=C\\c2cccnc2)c2ccccc2N1CCCN1CCN(c2cccc(Cl)c2)CC1", "Ki": 57}
{"smiles": "O=C(c1ccc(F)cc1)C1CCN(CCn2c(=O)[nH]c3ccccc3c2=O)CC1", "note": "[KETANSERIN]", "Ki": 1930}
{"smiles": "O=C1Cc2ccccc2N1CCCN1CCN(c2cccc(Cl)c2)CC1", "Ki": 29}
{"smiles": "O=C1/C(=C\\c2cccs2)c2ccccc2N1CCCN1CCN(c2cccc(Cl)c2)CC1", "Ki": 20500}
{"smiles": "O=C1/C(=C\\c2ccc(Cl)cc2)c2ccccc2N1CCCN1CCN(c2cccc(Cl)c2)CC1", "Ki": 204}
{"smiles": "O=C1/C(=C/c2ccc(Cl)cc2)c2ccccc2N1CCCN1CCN(c2cccc(Cl)c2)CC1", "Ki": 1610}
{"smiles": "O=C1/C(=C/c2cccnc2)c2ccccc2N1CCCN1CCN(c2cccc(Cl)c2)CC1", "Ki": 101}
{"smiles": "O=C1/C(=C/c2ccccc2)c2ccccc2N1CCCN1CCN(c2cccc(Cl)c2)CC1", "Ki": 399}
{"smiles": "COc1ccc(/C=C2/C(=O)N(CCCN3CCN(c4cccc(Cl)c4)CC3)c3ccccc32)cc1", "Ki": 538}
{"smiles": "O=C1/C(=C\\c2ccccc2)c2ccccc2N1CCCN1CCN(c2cccc(Cl)c2)CC1", "Ki": 54}
{"smiles": "O=C1/C(=C/c2cccs2)c2ccccc2N1CCCN1CCN(c2cccc(Cl)c2)CC1", "Ki": "> 50000"}
{"system": "Rattus norvegicus", "assay": "Dose dependendt inhibition of 8-OH-DPAT(1 mg/kg, sc) induced lower lip retraction(LLR) in rats pre-administered 20 mg/kg ip dose", "assay_type": "functional", "details": "route intraperitoneal"}
{"smiles": "O=C1/C(=C\\c2cccnc2)c2ccccc2N1CCCN1CCN(c2cccc(Cl)c2)CC1", "Incidence_count": 0.9}
{"smiles": "O=C1/C(=C\\c2ccccc2)c2ccccc2N1CCCN1CCN(c2cccc(Cl)c2)CC1", "Incidence_count": 0.8}
{"system": "Rattus norvegicus", "assay": "Tested for induction of lower lip retraction(LLR) in rats at 20 mg/kg, ip, given 15 min before the test", "assay_type": "functional", "details": "not given"}
{"smiles": "O=C1/C(=C\\c2cccnc2)c2ccccc2N1CCCN1CCN(c2cccc(Cl)c2)CC1", "Induction": 0.1}
